According to publication PMC11855827, “High-Throughput Screening of Five Compound Libraries for Anthelmintic Activity and Toxicity Leads to the Discovery of Two Flavonoid Compounds” (International Journal of Molecular Sciences, 2025):
“And” between values parts separate entries of the source, which are not always exact repeats. Identical values can stand only once. Like-named read-outs stand apart in the source and are kept apart here.

System: C. elegans
[1] = Table S2, C. elegans SS assay, 110 μM, averages of 4 data points
[2] = Table S2, C. elegans SS assay, 110 μM, 24 h, averages of 4 data points

| Structure (SMILES) | Inhibition (%) 110 μM (24 h) (C. elegans L4 motility, 110 μM, 24 h, mean ± SD of four experiments) [%] | Percentage of motility inhibition 0 h [1] [%] | Percentage of motility inhibition 24 h [2] | Percentage of motility inhibition 0 h (110 μM) [%] | Percentage of motility inhibition 24 h (24 h, 110 µM) [%] |
| --- | --- | --- | --- | --- | --- |
| CN1CCCN=C1/C=C/c1cccs1.O=C(O)C(O)C(O)C(=O)O [Pyrantel tartrate, reference compound] | 26 ± 1 | 85 | 61% | – | – |
| O=c1c(O[C@@H]2O[C@H](CO[C@@H]3O[C@H](CO)[C@@H](O)[C@H](O)[C@H]3O)[C@@H](O)[C@H](O)[C@H]2O)c(-c2ccc(O)c(O)c2)oc2cc(O)cc(O)c12 [Quercetin 3‐gentiobioside] | – | 42 | 0% | – | – |
| O.O.O=c1c(O)c(-c2ccc(O)c(O)c2)oc2cc(O)cc(O)c12 [Quercetin (dihydrate)] | – | 0 | 3% | – | – |
| C=C[C@H]1CN2CC[C@H]1C[C@@H]2[C@@H](O)c1ccnc2ccc(OC)cc12.Cl.O [Quinidine hydrochloride monohydrate] | – | 40 | 6% | – | – |
| C=C[C@H]1CN2CC[C@H]1C[C@H]2[C@H](O)c1ccnc2ccc(OC)cc12.Cl.O.O [Quinine (hydrochloride dihydrate)] | – | – | 8% | – | – |
| C=C[C@H]1C[N@@]2CC[C@H]1C[C@H]2[C@H](O)c1ccnc2ccc(OC)cc12 [Quinine] | – | – | 0% and 8% and 1% | – | – |
| C[C@@H]1O[C@@H](O[C@H]2[C@H](O[C@H]3[C@H](O[C@H]4CC[C@]5(C)[C@H]6CC=C7[C@@H]8CC(C)(C)CC[C@]8(C(=O)O)CC[C@@]7(C)[C@]6(C)CC[C@H]5C4(C)C)OC[C@H](O)[C@@H]3O)O[C@H](CO)[C@@H](O)[C@@H]2O)[C@H](O)[C@H](O)[C@H]1O [Raddeanin A] | – | 4 | 6% | – | – |
| C[C@@H]1O[C@@H](O[C@H]2[C@H](O[C@H]3[C@H](O[C@H]4CC[C@]5(C)[C@H]6CC=C7[C@@H]8CC(C)(C)CC[C@]8(C(=O)O[C@@H]8O[C@H](CO[C@@H]9O[C@H](CO)[C@@H](O[C@@H]%10O[C@@H](C)[C@H](O)[C@@H](O)[C@H]%10O)[C@H](O)[C@H]9O)[C@@H](O)[C@H](O)[C@H]8O)CC[C@@]7(C)[C@]6(C)CC[C@H]5C4(C)C)OC[C@H](O)[C@@H]3O)O[C@H](CO)[C@@H](O)[C@@H]2O)[C@H](O)[C@H](O)[C@H]1O [Raddeanoside R8] | – | 3 | 0% | – | – |
| Cl.O=C(c1ccc(OCCN2CCCCC2)cc1)c1c(-c2ccc(O)cc2)sc2cc(O)ccc12 [Raloxifene (hydrochloride)] | – | 32 | 0% | – | – |
| Cc1nnc(C(=O)NC(C)(C)c2nc(C(=O)NCc3ccc(F)cc3)c([O-])c(=O)n2C)o1.[K+] [Raltegravir (potassium salt)] | – | 3 | 4% | – | – |
| COC(=O)[C@H]1[C@H]2C[C@H]3c4[nH]c5ccccc5c4CCN3C[C@H]2CC[C@@H]1O.Cl [Rauwolscine (hydrochloride)] | – | 7 | 0% | – | – |
| C=C1C[C@@]23CC[C@H]4[C@@](C)(CCC[C@@]4(C)C(=O)O[C@@H]4O[C@H](CO)[C@@H](O)[C@H](O)[C@H]4O[C@@H]4O[C@H](CO)[C@@H](O)[C@H](O)[C@H]4O)[C@@H]2CC[C@]1(O[C@@H]1O[C@H](CO)[C@@H](O)[C@H](O[C@@H]2O[C@H](CO)[C@@H](O)[C@H](O)[C@H]2O)[C@H]1O[C@@H]1O[C@H](CO)[C@@H](O)[C@H](O)[C@H]1O)C3 [Rebaudioside D] | – | 11 | 3% | – | – |
| C=C1C[C@@]23CC[C@H]4[C@@](C)(CCC[C@@]4(C)C(=O)O[C@@H]4O[C@H](CO)[C@@H](O)[C@H](O[C@@H]5O[C@H](CO)[C@@H](O)[C@H](O)[C@H]5O)[C@H]4O[C@@H]4O[C@H](CO)[C@@H](O)[C@H](O)[C@H]4O)[C@@H]2CC[C@]1(O[C@@H]1O[C@H](CO)[C@@H](O)[C@H](O[C@@H]2O[C@H](CO)[C@@H](O)[C@H](O)[C@H]2O)[C@H]1O[C@@H]1O[C@H](CO)[C@@H](O)[C@H](O)[C@H]1O)C3 [Rebaudioside M] | – | 7 | 0% | – | – |
| C[C@]1(O[C@H]2O[C@H](CO)[C@H](O)[C@H](O)[C@H]2O)C[C@@H](O)[C@@H]2C=CO[C@@H](O[C@@H]3O[C@H](CO)[C@@H](O)[C@H](O)[C@H]3O)[C@@H]21 [Rehmannioside C] | – | 0 | 8% | – | – |
| OCC1=C[C@@H](O)[C@]2(O[C@@H]3O[C@H](CO)[C@@H](O)[C@H](O)[C@H]3O[C@@H]3O[C@H](CO)[C@@H](O)[C@H](O)[C@H]3O)C=CO[C@@H](O[C@@H]3O[C@H](CO)[C@@H](O)[C@H](O)[C@H]3O)[C@H]12 [Rehmannioside D] | – | 11 | 35% | – | – |
| CC1(C)[C@H]2O[C@H]2[C@H]2[C@](C)(O)[C@@H]3CC[C@@H]4[C@@H](O)[C@@]3(C[C@@H](O)[C@@]21O)C[C@@]4(C)O [Rhodojaponin III] | – | 5 | 2% | – | – |
| CC(=O)O[C@@H]1C[C@]23C[C@@](C)(O)[C@H](CC[C@H]2[C@@](C)(O)[C@@H]2[C@@H]4O[C@@H]4C(C)(C)[C@@]12O)[C@H]3O [Rhodojaponin II] | – | 4 | 8% | – | – |

| Structure (SMILES) | Inhibition (%) 110 μM (24 h) (C. elegans L4 motility, 110 μM, 24 h, mean ± SD of four experiments) [%] | Percentage of motility inhibition 0 h [1] [%] | Percentage of motility inhibition 24 h [2] | Percentage of motility inhibition 0 h (110 μM) [%] | Percentage of motility inhibition 24 h (24 h, 110 µM) [%] |
| --- | --- | --- | --- | --- | --- |
| C=CCCN1C[C@@H]2C[C@H](C1)c1cccc(=O)n1C2 [Rhombifoline] | – | 0 | 0% | – | – |
| NC[C@H]1O[C@H](O[C@H]2[C@H](O[C@@H]3O[C@H](CO)[C@@H](O)[C@H]3O)[C@@H](O)[C@H](N)C[C@@H]2N)[C@H](N)[C@@H](O)[C@@H]1O.O=S(=O)(O)O [Ribostamycin (sulfate)] | – | 33 | 13% | – | – |
| CC(N)C12CC3CC(CC(C3)C1)C2.Cl (stereo not drawn) [Rimantadine (hydrochloride)] | – | 45 | 25% | – | – |
| C=C(C)[C@@H]1CC[C@]2(C)[C@H](CC=C3[C@@H]4[C@@H](C)[C@H](C)CC[C@]4(C)CC[C@]32C)[C@@]1(C)CCC(=O)O [Roburic acid] | – | 11 | 15% | – | – |
| C[C@@H]1CC[C@]2(C(=O)O[C@@H]3O[C@H](CO)[C@@H](O)[C@H](O)[C@H]3O)CC[C@]3(C)C(=CC[C@@H]4[C@@]5(C)C[C@@H](O)[C@H](O)C(C)(C)[C@@H]5CC[C@]43C)[C@@H]2[C@]1(C)O [Rosamultin] | – | 21 | 1% | – | – |
| COc1cc2c(cc1OC)[C@@H]1Cc3ccc(OC)c(OC)c3CN1CC2 [Rotun dine] | – | – | – | 0 | 4 |
| COc1cc2c(cc1OC)[C@@H]1Cc3ccc(OC)c(OC)c3CN1CC2 [Rotundine] | – | – | 12% | – | – |
| C=C(C(=O)O)[C@H]1CC[C@H](C)[C@@H]2CC(=O)C(C)=C2C1 [Rupestonic acid] | – | 0 | 8% | – | – |
| C[C@@H]1O[C@@H](OC[C@H]2O[C@@H](Oc3c(-c4ccc(O)c(O)c4)oc4cc(O)cc(O)c4c3=O)[C@H](O)[C@@H](O)[C@@H]2O)[C@H](O)[C@H](O)[C@H]1O [Ruti n] | – | 33 | 10% | – | – |
| C[C@@H]1O[C@@H](OC[C@H]2O[C@@H](Oc3c(-c4ccc(O)c(O)c4)oc4cc(O)cc(O)c4c3=O)[C@H](O)[C@@H](O)[C@@H]2O)[C@H](O)[C@H](O)[C@H]1O.O [Rutin (hydrate)] | – | 2 | 8% | – | – |
| C[C@@H]1O[C@@H](OC[C@H]2O[C@@H](Oc3c(-c4ccc(O)c(O)c4)oc4cc(O)cc(O)c4c3=O)[C@H](O)[C@@H](O)[C@@H]2O)[C@H](O)[C@H](O)[C@H]1O.O.O.O [Rutin (trihydrate)] | – | 2 | 9% | – | – |
| COc1ccc(-c2oc3c(CC=C(C)C)c(O)cc(O)c3c(=O)c2O[C@@H]2O[C@@H](C)[C@H](O)[C@@H](O)[C@H]2O[C@@H]2O[C@H](CO)[C@@H](O)[C@H](O)[C@H]2O)cc1 [Sagittatoside A] | – | 43 | 12% | – | – |
| CC1(C)CC[C@@]2(CO)C(=C3C=C[C@@H]4[C@@]5(C)CC[C@H](O)[C@@](C)(CO)[C@@H]5CC[C@@]4(C)[C@]3(C)C[C@H]2O)C1 [Saikogenin D] | – | 27 | 14% | – | – |
| CC1(C)CC[C@]23CO[C@@]4(C=C[C@@H]5[C@@]6(C)CC[C@H](O)[C@@](C)(CO)[C@@H]6CC[C@@]5(C)[C@]4(C)C[C@@H]2O)[C@@H]3C1 [Saikogenin F] | – | 53 | 46% | – | – |
| C[C@H]1O[C@@H](O[C@H]2CC[C@@]3(C)[C@@H](CC[C@]4(C)[C@@H]3C=CC3=C5CC(C)(C)CC[C@]5(CO)[C@H](O)C[C@]34C)[C@]2(C)CO)[C@H](O)[C@@H](O[C@@H]2O[C@H](CO)[C@@H](O)[C@H](O)[C@H]2O)[C@H]1O [Saikosaponin B2] | – | 19 | 11% | – | – |
| CO[C@@H]1C=C2[C@@H]3CC(C)(C)CC[C@]3(CO)[C@H](O)C[C@@]2(C)[C@]2(C)CC[C@H]3[C@](C)(CO)[C@@H](O[C@@H]4O[C@H](C)[C@H](O)[C@H](O[C@@H]5O[C@H](CO)[C@@H](O)[C@H](O)[C@H]5O)[C@H]4O)CC[C@]3(C)[C@@H]12 [Saikosaponin B4] | – | 13 | 36% | – | – |
| C[C@@H]1O[C@@H](O[C@@H]2[C@H](O)[C@@H](O)[C@H](O[C@H]3CC[C@@]4(C)C(CC[C@]5(C)C4C=C[C@]46OC[C@@]7(CCC(C)(C)CC74)[C@@H](O)C[C@]65C)C3(C)C)O[C@@H]2CO[C@@H]2O[C@H](CO)[C@@H](O)[C@H](O)[C@H]2O)[C@H](O)[C@H](O)[C@H]1O (stereo partly drawn) [Saikosaponin C] | – | 24 | 0% | – | – |
